# Source: paper PMC6770006, “Novel Heat Shock Protein 90 Inhibitors Suppress P-Glycoprotein Activity and Overcome Multidrug Resistance in Cancer Cells” (International Journal of Molecular Sciences, 2019)
# Key:
# [1] = tested on: NCI-H460, NCI-H460/R, DLD1, DLD1-TxR cells; assay: MTT assay, grouping of inhibitors by IC50 over the cancer cell lines; assay type: cell-based; settings: Homo sapiens, Figure 2b, read-out: IC50 values (grouping for Pearson correlation)
# Method: When the IC50 values obtained by the MTT assay were compared to Hsp90 affinity binding IC50 values (Table 1), a positive Pearson correlation (r > 0.5) was found for all cancer cell lines (Figure 2b).
# (§1) Cell viability was assessed by the MTT assay (AppliChem GmbH, Darmstadt, Germany). Cells grown in 25 cm^2 tissue flasks were trypsinized and 1000 cells/well were seeded into flat-bottomed 96-well tissue culture plates and incubated overnight. Subsequently, the cells were treated with increasing concentrations of Hsp90 inhibitors for 72 h: compound 3 (0.1–2.5 µM), compound 4 (0.25–5 µM), compound 5 (0.5–25 µM), compound 6 (50–1000 nM), compound 7 (10–250 nM), compound 8 (0.25–5 µM), compound 9 (10–250 nM), compound 10 (0.5–25 µM), compound 13 (0.5–10 µM), compound 14 (1–25 µM), and compound 15 (10–250 nM). […] After treatment, MTT was added to each well in a final concentration of 0.2 mg/mL for 4 h. Formazan product was dissolved in 200 µl of DMSO, and the absorbance was measured at 540 nm using an automatic LKB 5060-006 Micro Plate Reader (Vienna, Austria). IC50 value was defined as a concentration of the drug that inhibited cell growth by 50% and was calculated by nonlinear regression analysis using GraphPad Prism 6.0 for Windows (La Jolla, CA, USA). Relative selectivity towards cancer cells was calculated as a relation between IC50 value obtained in MRC-5 cells and an average IC50 value from four tested cancer cell lines.
# P-gp [2] = molecular target: T1, P-gp (Homo sapiens, UniProt P08183); assay: Rhodamine 123 accumulation assay (P-gp activity, flow cytometry); assay type: cell-based; set-up: P-gp overexpressing multidrug resistant DLD1-TxR cells were selected by continuous exposure to stepwise increasing concentrations of paclitaxel from DLD1 cells; endogenous in cells; host or cells: NCI-H460/R and DLD1-TxR (drug-selected MDR human cancer cells); settings: NCI-H460/R and DLD1-TxR, 30 min, Figure 3b
# T1 sequence (P08183 whole entry): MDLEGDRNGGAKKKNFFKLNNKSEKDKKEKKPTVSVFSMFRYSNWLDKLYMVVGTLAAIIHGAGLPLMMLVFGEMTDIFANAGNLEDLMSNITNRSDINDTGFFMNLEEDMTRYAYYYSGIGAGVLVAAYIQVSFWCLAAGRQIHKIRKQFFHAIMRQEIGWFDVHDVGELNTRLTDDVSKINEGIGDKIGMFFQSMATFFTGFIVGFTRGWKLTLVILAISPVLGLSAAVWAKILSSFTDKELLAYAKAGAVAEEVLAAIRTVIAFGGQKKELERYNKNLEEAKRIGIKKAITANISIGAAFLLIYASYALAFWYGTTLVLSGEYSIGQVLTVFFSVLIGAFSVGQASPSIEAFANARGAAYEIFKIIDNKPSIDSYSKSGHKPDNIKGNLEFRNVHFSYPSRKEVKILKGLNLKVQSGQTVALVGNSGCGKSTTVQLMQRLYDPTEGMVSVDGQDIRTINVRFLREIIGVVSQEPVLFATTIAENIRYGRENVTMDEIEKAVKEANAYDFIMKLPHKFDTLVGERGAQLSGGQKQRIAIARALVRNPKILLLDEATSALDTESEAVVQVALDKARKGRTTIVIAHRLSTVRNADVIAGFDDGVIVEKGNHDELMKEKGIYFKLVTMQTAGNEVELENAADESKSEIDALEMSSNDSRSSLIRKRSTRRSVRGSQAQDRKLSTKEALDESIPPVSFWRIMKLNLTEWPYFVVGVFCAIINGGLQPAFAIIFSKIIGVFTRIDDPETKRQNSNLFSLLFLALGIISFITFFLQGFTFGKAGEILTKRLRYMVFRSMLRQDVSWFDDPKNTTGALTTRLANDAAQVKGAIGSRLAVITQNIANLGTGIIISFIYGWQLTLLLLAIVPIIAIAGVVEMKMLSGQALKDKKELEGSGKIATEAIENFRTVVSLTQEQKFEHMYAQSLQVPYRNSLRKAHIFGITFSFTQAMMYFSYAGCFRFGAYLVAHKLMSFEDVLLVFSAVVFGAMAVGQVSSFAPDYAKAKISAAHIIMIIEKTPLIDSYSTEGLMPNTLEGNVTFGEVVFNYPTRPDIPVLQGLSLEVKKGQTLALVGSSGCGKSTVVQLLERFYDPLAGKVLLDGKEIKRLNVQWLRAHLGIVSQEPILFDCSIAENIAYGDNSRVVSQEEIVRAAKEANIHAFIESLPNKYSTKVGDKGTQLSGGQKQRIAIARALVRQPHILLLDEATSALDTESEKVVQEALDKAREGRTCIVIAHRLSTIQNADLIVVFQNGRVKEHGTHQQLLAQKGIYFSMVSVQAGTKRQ
# P-gp [3] = molecular target: T1, P-gp; assay: P-gp ATPase activity assay (Pgp-Glo); assay type: biochemical; set-up: purchased Promega; settings: 5: 5, 10, 20 µM; 7 and 9: 100, 250, 500 nM; Figure 5a
# Method: P-gp relies on the ATP hydrolysis energy to extrude the substrate outside the cell and compounds that interact with P-gp can stimulate or inhibit its ATPase activity. Compounds that are P-gp substrates usually stimulate its ATPase activity. Pgp-Glo™ assay system (Promega, Madison, WI, USA) detects the compound’s effect on recombinant human P-gp in a cell membrane fraction. P-gp ATPase activity was measured using luminescent Pgp-Glo™ assay kit according to manufacturer’s instructions. Briefly, ATP was first incubated with P-gp; then the P-gp ATPase reaction was stopped, and the remaining unmetabolized ATP was detected as a luciferase-generated luminescent signal. Pgp-dependent decreases in luminescence reflect ATP consumption by P-gp; thus, the greater the decrease in signal, the higher the P-gp activity. […] Verapamil and sodium orthovanadate, supplied in the assay kit were used as positive controls. Verapamil is a P-gp substrate and competitive inhibitor, and sodium orthovanadate is a noncompetitive inhibitor of P-gp ATPase activity. The luminescence of samples treated with increasing concentrations of compound 5 (5 µM, 10 µM and 20 µM), compound 7 (100 nM, 250 nM and 500 nM) and compound 9 (100 nM, 250 nM and 500 nM), was measured with a luminometer microplate reader (CHAMELEON™V, Hidex, Turku, Finland).
# DLD1 cells = assay: MTT assay, cell growth inhibition, DLD1; assay type: cell-based; settings: Homo sapiens, DLD-1, 72 h
# Method: (§2) A series of 3-aryl-naphtho[2,3-d]isoxazole-4,9-diones were synthesized (Scheme 1, Figure 1) and their growth inhibition activity was tested in vitro on human non-small cell lung carcinoma NCI-H460, colorectal carcinoma DLD1 and their corresponding MDR cells (NCI-H460/R and DLD1-TxR, respectively), as well as normal embryonic lung fibroblasts MRC-5. The differences in cell growth inhibition between cancer and normal cells obtained by the MTT assay after 72 h treatment are presented in Table 1. The effect of compounds is presented as IC50 values that correspond to the 50% of cell growth inhibition.
# as §1
# NCI-H460/R cells = assay: MTT assay, cell growth inhibition, NCI-H460/R (MDR); assay type: cell-based, human; settings: for IC50: Homo sapiens, NCI-H460, 72 h, MDR cells; for Efficacy in MDR NCI-H460/R cells compared with sensitive NCI-H460: 72 h
# Method: as §2
# Human colorectal carcinoma (DLD1), non-small cell lung carcinoma (NCI-H460), and normal embryonic lung fibroblast (MRC-5) cell lines were purchased from the American Type Culture Collection, Rockville, MD. P-gp overexpressing multidrug resistant DLD1-TxR cells were selected by continuous exposure to stepwise increasing concentrations of paclitaxel from DLD1 cells, while NCI-H460/R cells were selected from NCI-H460 cells after DOX selective pressure. MDR cancer cell lines, DLD1-TxR and NCI-H460/R, and their sensitive counterparts were maintained in RPMI 1640 medium supplemented with 10% FBS, 2 mM L-glutamine, and 10,000 U/mL penicillin, 10 mg/mL streptomycin, 25 mg/mL amphotericin B solutions. MRC-5 cells were cultured in DMEM supplemented with 10% FBS, 4 g/L glucose, 2 mM L-glutamine and 5000 U/mL penicillin, 5 mg/mL streptomycin solution. All cell lines were sub-cultured at 72 h intervals using 0.25% trypsin/EDTA and seeded into a fresh medium at 8000 cells/cm^2. All cell lines were maintained at 37 °C in a humidified 5% CO2 atmosphere.
# as §1
# NCI-H460 cells = assay: MTT assay, cell growth inhibition, NCI-H460; assay type: cell-based; settings: Homo sapiens, 72 h, three independent experiments
# Method: as §2, §1
# MRC-5 cells = assay: MTT assay, normal embryonic lung fibroblasts MRC-5; assay type: cell-based, human; settings: for IC50: Homo sapiens, MRC5, MTT, 72 h, normal fibroblasts, read-out: Cell growth inhibition IC50, MRC-5; for Relative Selectivity: IC50 in MRC-5 cells / average IC50 of four cancer cell lines
# Method: as §2, §1
IC50 [1],Concentration dependence of P-gp inhibition (Rho 123 accumulation) (P-gp [2]),Effect on P-gp ATPase activity (P-gp [3]),IC50 (DLD1 cells),IC50 (NCI-H460/R cells),IC50 (NCI-H460 cells),Structure (SMILES),IC50 (MRC-5 cells),Relative Selectivity (MRC-5 cells),Efficacy in MDR NCI-H460/R cells compared with sensitive NCI-H460 (NCI-H460/R cells)
< 1 µM,concentration dependent effect,significant inhibition,0.045 ± 0.001 µM,0.172 ± 0.005 µM,0.096 ± 0.002 µM,O=C1c2ccccc2C(=O)c2c(-c3cccnc3)noc21 [Compound 9],0.302 ± 0.008 µM,3.33,
≥ 1 µM,concentration dependent effect,smallest effect on ATPase activity,5.68 ± 0.163 µM,25.5 ± 0.925 µM,5.72 ± 0.073 µM,O=C1c2ccccc2C(=O)c2c(-c3ccccc3O)noc21 [Compound 5],128 ± 39 µM,10.64,further compromised in the presence of MDR phenotype
< 1 µM,concentration dependent effect,potent dose-dependent inhibition,0.156 ± 0.004 µM,0.231 ± 0.006 µM,0.199 ± 0.005 µM,O=C1c2ccccc2C(=O)c2c(-c3ccncc3)noc21 [Compound 7],0.599 ± 0.015 µM,3.31,evaded resistance in both MDR cancer cell lines
